How the values were obtained:
[1] = test system: UV-induced CPDs and 6-4PPs in primary MEFs; test: GGR ELISA assay of CPD and 6-4PP removal in MEFs; type: cell-based, mouse
XPC in HCT116 cells = test: XPC chromatin binding and ubiquitination after UV irradiation (immunoblot of chromatin-bound extracts); type: cell-based, human; details: HCT116, lentiviral shRNA 48 hours
Experimental: XPC ubiquitination was determined in HCT116 cells following UV irradiation. HCT116 cells were infected with lentiviral shCul4a or control FUGW for 48 hours, UV irradiated at 10 J/m^2 and harvested at 0 hr, 0.5 hr, 1 hr, and 2 hr post-UV. The chromatin-bound extracts were prepared and subjected to immunoblotting.

mouse CUL4B = test: Western blotting of MEF extracts after lentiviral shRNA infection (knockdown efficiency); type: cell-based; details: early passage (P3) primary MEFs, harvested 48 hours post-infection
Description: (§1) Short hairpin (sh) RNAs for gene targeting were as follows: murine sh-Cul4b was 5′-[…]-3′ (SEQ ID NO: 9); murine sh-Pcid2-1 was 5′-[…]-3′ (SEQ ID NO: 10); murine sh-Pcid2-2 was 5′-[…]-3′ (SEQ ID NO: 11); murine sh-p21 was 5′-[…]-3′ (SEQ ID NO: 12); scrambled sh-Cul4b was 5′-[…]-3′ (SEQ ID NO: 13); and human sh-Cul4a was 5′-GAAGCTGGTCATCAAGAAC-3′ (SEQ ID NO: 14). shRNAs were subcloned into the FUGW lentiviral vector and expressed under the U6 promoter (Sui and Shi, Methods Mol. Biol., 309: 205-218 (2005)). Recombinant lentiviruses were generated for infection of MEFs or HCT116 cells.
(§2) MEFs were isolated from embryonic day (E) 13.5 wild-type or Cul4a knockout embryos. shRNAs for murine Cul4b and Pcid2 as well as scrambled controls were subcloned into the FUGW lentiviral vector and expressed under the U6 promoter as described in Example 1. Recombinant shCul4b and shPcid2 lentiviruses were generated for infection of primary Cu/4a^f/f and Cul4a^−/− MEF cells. shRNA-containing FUGW lentivirus were added onto Cu/4a^f/f and Cul4a^−/− MEFs every 12 hours for 36 hours. The cells were harvested 48 hours post-infection, and Western blotting was performed on MEF extracts using antibodies against CUL4A (C-19, Santa Cruz Biotechnology), CUL-4B, DDB2 (Cell Signaling Technology, Danvers, Mass.), p21 (Santa Cruz Biotechnology), XPC, histone H3, and β-actin (Sigma, St. Louis, Mo.).

[2] = test system: primary Cul4a f/f and Cul4a−/− MEF cells; test: Western blotting of DDB2, p21 and XPC steady-state protein levels in MEFs after lentiviral shRNA; type: cell-based, mouse; details: Western blot
Experimental: as §2

Cul4a−/− MEFs = test: BrdU incorporation and cell viability of Cul4a−/− MEFs after Cul4b silencing; type: cell-based, mouse; details: silencing of Cul4b in Cul4a−/− MEFs
Description: FIG. 3A is a bar graph depicting the percentage of control (f/f-4a) and Cul4a knockout (ko-4a) MEFs infected with a lentivirus encoding GFP and either short hairpin (sh)-4b or scrambled (scm)-4b, at the indicated time point, as determined by FACS. FIG. 3B is a bar graph depicting BrdU incorporation into the MEFs described in FIG. 3A, as determined by counting BrdU^+ cells in microscopic fields.
as §1

HCT116 cells = test: CPD repair (NER activity) in UV-irradiated HCT116 cells infected with adenovirus; type: cell-based, human; details: HCT116, 10 J/m^2 UV-C, 0-24 hr
Experimental: The GGR ELISA assay of CPD and 6-4PP removal was performed as previously described (Chen et al., 2006) in primary Cul4a^−/− (ko-4-a scm-4b), Cu/4b^k/d (f/f-4a sh-4b), and control Cu/4a^f/f (f/f-4a scm-4-b) MEFs (FIG. 7B, ko, knockout; k/d, knockdown; scm, scramble). Briefly, exponentially growing MEF cells were irradiated with 10 J/m^2 UV-C (254 nm) and either harvested immediately (0 hr) or allowed to repair for the duration indicated in FIG. 7B. Genomic DNA was isolated and quantified via liquid scintillation and fluorometric measurements of Hoechst-stained DNA. Denatured genomic DNA was fixed to each well of protamine sulfate-coated 96-well plates and sequentially incubated with monoclonal antibody specific for 6-4PPs (64M-2, 1:5000) or CPDs (1:5000), biotin-F(ab′)2 fragment of anti-mouse IgG (H+L) (1:2000, Zymed) and peroxidase-Streptavidin (1:10,000, Zymed) for 30 min at 37° C. The wells were washed with PBS-Tween and 0.1 M citrate-phosphate buffer and incubated with the substrate solution (0.1 M citrate-phosphate buffer, 0.1 mg/mL tetramethylbenzidine [TMB], 0.03% H2O2) at room temperature for 30 min. […] A450 was determined using a plate reader (Molecular Devices).
HCT116 cells were infected with a control adenovirus or an adenovirus comprising a gene encoding a DN-CUL4 (SEQ ID NO: 18). […] The rate of NER activity was then calculated as the rate of CPD repair as a function of time.

## sh-p21: murine short hairpin RNA targeting p21, 5′-GAGAACGGTGGAACTTTGACTT-3′ (SEQ ID NO: 12), lentiviral (expressed or natural sequence; listed as Mus musculus)
[1]; p21 knockdown (or p21 deletion) in Cul4a−/− MEFs, 10 J/m^2 UV, 24-hour repair assay
  reduction of NER activity in CPD removal compared to Cul4a−/− MEFs: 8-11%

## shCul4a: human short hairpin RNA targeting Cul4a, 5′-GAAGCTGGTCATCAAGAAC-3′ (SEQ ID NO: 14), in FUGW lentiviral vector (listed as Homo sapiens)
XPC in HCT116 cells; UV 10 J/m^2
  association of XPC with chromatin: increased
XPC in HCT116 cells; UV 10 J/m^2, 0-2 hr post-UV
  XPC ubiquitination on chromatin post-UV: dramatic inhibition

## shCul4b: murine short hairpin RNA targeting Cul4b, 5′-GTAGTAACGAGAGAGAAGACT-3′ (SEQ ID NO: 9), in FUGW lentiviral vector (listed as Mus musculus)
Mouse CUL4B
  reduction of mouse CUL4B protein: over 93%
[2]; Cul4b knockdown
  effect on XPC accumulation: marginal effect
[2]; Cul4b silencing by RNAi
  effect on p21 protein accumulation: little effect
[2]; lentiviral shRNA
  effect on DDB2 levels: only a marginal effect
Cul4a−/− MEFs
  BrdU incorporation: dramatic reduction
  cell viability: loss of cell viability
[1]; Cul4b knockdown in Cul4a f/f MEFs, 10 J/m^2 UV-C
  effect on GGR efficiency (CPD and 6-4PP removal): no discernable effect

B1: DN-CUL4: dominant negative CUL4 fragment (SEQ ID NO: 18) expressed from an adenovirus (protein, listed as Homo sapiens)
chain: MADEAPRKGSFSALVGRTNGLTKPAALAAAPAKPGGAGGSKKLVIKNFRDRPRLPDNYTQDTWRKLHEAVRAVQSSTSIRYNLEELYQAVENLCSHKVSPMLYKQLRQACEDHVQAQILPFREDSLDSVLFLKKINTCWQDHCRQMIMIRSIFLFLDRTYVLQNSTLPSIWDMGLELFRTHIISDKMVQSKTIDGILLLIERERSGEAVDRSLLRSLLGMLSDLQVYKDSFELKFLEETNCLYAAEGQRLMQEREVPEYLNHVSKRLEEEGDRVITYLDHSTQKPLIACVEKQLL
modifications: DN-CUL4A (M1-L295)
HCT116 cells
  CPD repair compared to control adenovirus cells: occurred earlier and was more complete

Reference: patent US8513181B2, “Substances and compositions for enhancing DNA repair and methods of use” (Cornell University, priority 2008, dated 2013)
